In patent US20090233899A1, “Crystalline Modification of Cefuroximaxetil” (Gruenenthal GmbH, priority 2006, published 2009):

Experiment: Binary mixtures of the ε-modification with the α-, β- or γ-modification in methanol and acetone (relative thermodynamic stability)
Format: physicochemical

CO/N=C(\C(=O)N[C@@H]1C(=O)N2C(C(=O)OC(C)OC(C)=O)=C(COC(N)=O)CS[C@H]12)c1ccco1 (stereo partly shown) [ε-modification, cefuroximaxetil]
thermodynamic stability relative to the other crystalline modifications: more stable than the α-, β- or γ-modification
